According to article PMC2954496 (Bioorganic & medicinal chemistry, 2010):
≈ marks a conversion by molar mass, not a printed value.

Experiments:
HIV-RT = conditions: preliminary mechanism of action studies; cited from earlier work
[1] = Water solubility analysis by HPLC; format: physicochemical

SMILES	Inhibition of HIV-RT DNA-dependent DNA polymerase activity (HIV-RT)	solubility at 1 h [1] [µg/mL]
Cc1cc(=O)oc2c3c(ccc12)OC(C)(C)[C@H](OC(=O)[C@@]12CC[C@@](C)(C(=O)O1)C2(C)C)[C@@H]3OC(=O)[C@@]12CC[C@@](C)(C(=O)O1)C2(C)C [Compound 4-MDCK, 4-methyl DCK]	inhibited	–
Cc1cc(=O)c2c(C)cc3c(c2o1)[C@@H](OC(=O)[C@@]12CC[C@@](C)(C(=O)O1)C2(C)C)[C@@H](OC(=O)[C@@]12CC[C@@](C)(C(=O)O1)C2(C)C)C(C)(C)O3 [Compound 5, 3′R,4′R-Di-O-(−)-camphanoyl-2,5,2′,2′-tetramethyldihydropyrano[2,3-f]chromone]	–	5.2 (≈ 7.99 µM)
